Test systems include CAKI-1 renal; HT29 colon; IGROV1 ovarian; KM12 colon; LOX IMVI melanoma; NCI/ADR-RES ovarian; SF-268 CNS; SF-295 CNS; SK-MEL-2 melanoma; UACC-257 melanoma.
Holding throughout (experiment): inhibition of tumour cell growth, NCI panel, 48 h

Values joined by “and” are separate entries in the source; they are usually repeats but may differ in a detail not shown here. Identical values can stand only once.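 Growth conditions: 96-well plates. Treatment: test compound, 48 hours, 5 concentrations. Analysis: linear interpolation between bracketing concentrations; unreached endpoints set to highest concentration. The concentration for 50% growth inhibition is given as GI50. TGI marks complete inhibition of growth.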 Bounds are passed on as bounds.

The text below walks through data of PubChem BioAssay (NCI).

Regarding `S=C(CSc1ccccc1)Nc1cccc2ccccc12`, the TGI in the assay on CAKI-1 renal, in the assay on HT29 colon, with IGROV1 ovarian, in the assay with KM12 colon, in the assay with LOX IMVI melanoma and in the assay on NCI/ADR-RES ovarian was above 100 µM throughout. The TGI with SF-268 CNS is above 100 µM; in the assay on SF-295 CNS it was 97.1 µM; in the assay with SK-MEL-2 melanoma, 74.5 µM; in the assay with UACC-257 melanoma, 68.3 µM.

Turning to `CC[C@@H](O)C[C@H]1CCC[C@@]2(C[C@@H]3OC(=O)/C=C/[C@@](C)(O)[C@@H](O)[C@H](C)[C@@H](O)[C@H](OC4CCC(N(C)C)C(C)O4)[C@@H](O)[C@](C)(O)CCCCC/C=C/[C@@H]4CC(C)(C)O[C@@]4(O)C[C@H](O2)[C@H]3C)O1` (stereo not given in full), the TGI in the assay with CAKI-1 renal is 20.2 µM; with HT29 colon, above 39.7 µM; in the assay on IGROV1 ovarian it was 21.8 µM; with KM12 colon it was 24.4 µM; with LOX IMVI melanoma it was 9.46 µM; in the assay on NCI/ADR-RES ovarian, 24 µM. Moreover, the TGI was found to be 35.2 µM with SF-268 CNS, 21.6 µM in the assay on SF-295 CNS, 22.7 µM in the assay on SK-MEL-2 melanoma and 4.82 µM in the assay on UACC-257 melanoma.

`Cc1noc(C)c1-c1cnc2c(-c3ccc(C(=O)O)cc3)cn([C@@H](C)c3ccccn3)c2c1`: the GI50 in the assay with CAKI-1 renal is 0.0745 µM; in the assay on HT29 colon, 0.386 µM; in the assay with IGROV1 ovarian, 0.607 µM; in the assay with KM12 colon, 2.73 µM; in the assay with LOX IMVI melanoma, 0.315 µM; with NCI/ADR-RES ovarian it was 2.28 µM. For the same compound, the GI50 in the assay with SF-268 CNS was 9.04 µM; in the assay on SF-295 CNS, 3.71 µM; in the assay on SK-MEL-2 melanoma, 7.02 µM; in the assay on UACC-257 melanoma, 1.62 µM. The TGI was above 83.6 µM in the assay with CAKI-1 renal; above 100 µM with HT29 colon; above 100 µM with IGROV1 ovarian; above 100 µM in the assay on KM12 colon; 7.73 µM in the assay on LOX IMVI melanoma; above 100 µM with NCI/ADR-RES ovarian. The TGI in the assay on SF-268 CNS, with SF-295 CNS, in the assay on SK-MEL-2 melanoma and in the assay on UACC-257 melanoma was above 100 µM throughout.

`O=C(O)Cn1ccc2ccccc21`: the GI50 is above 100 µM in the assay on CAKI-1 renal; above 100 µM in the assay with HT29 colon; 72.7 µM in the assay on IGROV1 ovarian; above 100 µM in the assay with KM12 colon; above 100 µM in the assay with LOX IMVI melanoma; above 100 µM with NCI/ADR-RES ovarian. For the same compound, the GI50 in the assay with SF-268 CNS, in the assay with SF-295 CNS, in the assay on SK-MEL-2 melanoma and in the assay on UACC-257 melanoma was above 100 µM each time. Also, the TGI in the assay on CAKI-1 renal, in the assay on HT29 colon, with IGROV1 ovarian, in the assay on KM12 colon, in the assay on LOX IMVI melanoma and in the assay on NCI/ADR-RES ovarian was above 100 µM throughout. Besides, the TGI in the assay on SF-268 CNS, in the assay on SF-295 CNS, in the assay on SK-MEL-2 melanoma and with UACC-257 melanoma was above 100 µM in each case.

On to `Cc1c(C)c2c(c(C)c1OCC(=O)O)CC[C@@](C)(CCC[C@@H](C)CCC[C@@H](C)CCCC(C)C)O2`, for which the GI50 in the assay on CAKI-1 renal was 76.7 µM; in the assay with HT29 colon, 58.3 µM; with IGROV1 ovarian, 91.7 µM; with KM12 colon, 63.3 µM; in the assay on LOX IMVI melanoma, 78.7 µM; in the assay with NCI/ADR-RES ovarian it was 78.7 µM. In addition, the GI50 in the assay on SF-268 CNS was 87.8 µM; in the assay with SF-295 CNS, 60.1 µM; in the assay with SK-MEL-2 melanoma it was 64.4 µM; in the assay on UACC-257 melanoma, 77.2 µM. Moreover, the TGI in the assay on CAKI-1 renal stood at 151 µM; in the assay on HT29 colon it was 140 µM; with IGROV1 ovarian it was 187 µM; in the assay on KM12 colon, 173 µM; with LOX IMVI melanoma, 216 µM; in the assay with NCI/ADR-RES ovarian, 210 µM. Moreover, the TGI is 196 µM in the assay on SF-268 CNS, 146 µM in the assay with SF-295 CNS, 142 µM in the assay on SK-MEL-2 melanoma and 183 µM with UACC-257 melanoma.

Take `O=C(/C=C\n1cnc(-c2cc(C(F)(F)F)cc(C(F)(F)F)c2)n1)N1CC(F)(F)C1`: the GI50 with CAKI-1 renal was 0.288 µM; in the assay on HT29 colon it was 0.919 µM; in the assay on IGROV1 ovarian, 0.978 µM; in the assay with KM12 colon it was 2.41 µM; in the assay on LOX IMVI melanoma it was 0.357 µM; in the assay with NCI/ADR-RES ovarian, 0.552 µM. Besides, the GI50 is 0.254 µM in the assay with SF-268 CNS, 0.336 µM in the assay on SF-295 CNS, 0.154 µM in the assay on SK-MEL-2 melanoma and 1.17 µM with UACC-257 melanoma. The TGI in the assay on CAKI-1 renal is 6.84 µM; with HT29 colon it was 11.5 µM; in the assay on IGROV1 ovarian, 8.59 µM; with KM12 colon, above 25 µM; in the assay on LOX IMVI melanoma it was 3.45 µM; in the assay on NCI/ADR-RES ovarian it was 10.9 µM. In addition, the TGI with SF-268 CNS is 2.48 µM; with SF-295 CNS, above 17 µM; with SK-MEL-2 melanoma it was 1.58 µM; with UACC-257 melanoma, above 13.1 µM.

For `CN1CCN(CCCOc2cccc3nc(Nc4ccc(F)c(F)c4)ccc23)CC1`, the GI50 in the assay with CAKI-1 renal was 4.45 µM; with HT29 colon it was 0.616 µM; in the assay with IGROV1 ovarian it was 5.55 µM; in the assay with KM12 colon, 2.35 µM; in the assay with LOX IMVI melanoma it was 1.03 µM; with NCI/ADR-RES ovarian it was 5.16 µM. The GI50 with SF-268 CNS is 4.46 µM; with SF-295 CNS, 4.64 µM; with SK-MEL-2 melanoma, 3.95 µM; with UACC-257 melanoma, 0.655 µM. Also, the TGI in the assay on CAKI-1 renal came to 9.35 µM; in the assay on HT29 colon it was 1.35 µM; in the assay on IGROV1 ovarian it was 11.4 µM; in the assay on KM12 colon, 7.78 µM; with LOX IMVI melanoma, 3.36 µM; with NCI/ADR-RES ovarian, 10.5 µM. In addition, the TGI in the assay with SF-268 CNS came out at 9.74 µM; in the assay on SF-295 CNS, 9.3 µM; with SK-MEL-2 melanoma it was 8.62 µM; with UACC-257 melanoma, 1.39 µM.

Consider `Nc1ccccc1C(=O)NC(=O)Nc1ccc(Oc2ncc(Br)cn2)c(Cl)c1`, for which the TGI in the assay with CAKI-1 renal worked out at 1.72 µM; in the assay with HT29 colon, 0.448 µM; in the assay with IGROV1 ovarian, 7.83 µM; in the assay on KM12 colon, 9.56 µM; in the assay with LOX IMVI melanoma, 24.1 µM; in the assay on NCI/ADR-RES ovarian, 0.391 µM. Also, the TGI in the assay on SF-268 CNS was 18.9 µM; in the assay with SF-295 CNS, 0.127 µM; in the assay with SK-MEL-2 melanoma, 5.65 µM; in the assay with UACC-257 melanoma, 25.3 µM.

For the compound `CNCCCNc1c2ccccc2nc2cccc([N+](=O)[O-])c12`, the TGI is 0.0271 µM in the assay on CAKI-1 renal; 0.0185 µM with HT29 colon; 0.0201 µM and 0.0279 µM in the assay with IGROV1 ovarian; 0.0677 µM with KM12 colon; 0.016 µM with LOX IMVI melanoma; 0.0346 µM with NCI/ADR-RES ovarian. Moreover, the TGI with SF-268 CNS was 0.0166 µM and 0.0211 µM; in the assay on SF-295 CNS it was 0.0279 µM; in the assay on SK-MEL-2 melanoma, 0.00798 µM; in the assay on UACC-257 melanoma, 0.0495 µM.
